Entries after “also recorded” stand apart in the source; their conditions may differ.
Tested on: MLO-Y4 cells
Assay: Integrin-like signaling (pFAK, pZyxin, pAKT, pCREB) in MLO-Y4 cells, immunoblot
Assay type: cell-based
Conditions: MLO-Y4, inhibitor pre-treatment 10 minutes before irisin
Procedure: Integrin heterodimer binds to its ligand. The interaction results in phosphorylation of FAK and Zyxin, followed by phosphorylation of AKT (at T308) and CREB. PM is plasma membrane. FIG. 2C and FIG. 2D show the immunoblots. MLO-Y4 cells were seeded and incubated until 60% cell density. The cells were incubated with serum free medium (FreeStyle™ 293 medium) for 4 hours and were treated for indicated time with 10 nM norepinephrine or irisin (FIG. 2C) or indicated concentrations of irisin for 10 minutes (FIG. 2D). Cells were lysed to detect the indicated protein level using immunoblot analysis.
Certain materials and methods were used to generate the results described herein. For example, the data shown in FIG. 1A resulted from MLO-Y4 (an osteocyte-like cell line) cells treated with the indicated concentration of irisin and hydrogen peroxide for 4 hours. Cells were stained with Hoechst 33342 (ThermoFisher Scientific, catalog number H3570) and Eth-D1 (ThermoFisher Scientific, catalog number E1169) and analyzed to determine the percentage of cell death using ImageJ. The data shown in FIG. 2D resulted from MLO-Y4 incubated in serum free medium (FreeStyle™ 293 expression medium, ThermoFisher Scientific, catalog number 12338018) for 4 hours followed by treatment of indicated concentrations of irisin for 10 minutes. Cells were lysed to detect the indicated protein level using immunoblot analysis (Cell Signaling Technology, catalog numbers 3283S, 3285S, 8467S, 3553S, 9198S, and 9104S; Abcam, catalog number ab49900-100ul). The data shown in FIG. 3 resulted from 3T3-F442A cells incubated in serum free medium for 4 hours followed by treatment of indicated concentrations of irisin for 10 minutes. Cells were lysed by RIPA buffer to detect the indicated protein level using immunoblot analysis. The data shown in FIG. 4 were generated from 100 nM flag-tagged irisin (Enzo life sciences, catalog number ADI-908-307-3010) incubated with 5 nM of the indicated 6 his-tag integrins (R & D Systems Inc., catalog numbers 7064-AB-025, 5668-A4-050, 5438-A9-050, 6357-AB-050, and 6579-AV-025) in the presence of RGDS peptide (R & D Systems Inc., catalog number 3498/10) or its control peptide (Enzo Life Sciences, catalog Number BML-P701-0005) followed by immunoprecipitation using 6 his-tag beads (ThermoFisher Scientific, catalog number R901-01). Co-precipitated irisin was analyzed by immunoblot analysis against flag tag (Sigma Aldrich, catalog number A8592). The data shown in FIGS. 5A and 5B were generated from MLO-Y4 cells treated and analyzed as in the experiments used to generate the data shown in FIG. 2D, except that pre-treatment of 100 nM RGDS (FIG. 5A) or echistatin (R & D Systems Inc., catalog number 3202/100U) (FIG. 5B) for 10 minutes was performed before irisin treatment. The data shown in FIGS. 6A and 6B were generated from MLO-Y4 cells incubated in serum free medium for 3 hours followed by treatment of indicated time of 10 nM irisin for 16 hours. RNAs were extracted from the cells and the sclerostin mRNA level was analyzed by qPCR (FIG. 6A) or treated and analyzed as in (FIG. 6A), except that pre-treatment of 10 μM RGDS, RGDyK (Selleck, catalog number S7844), or echistatin was performed for 10 minutes before irisin treatment. The data shown in FIGS. 7A and 7B were generated from 8 week-old mice injected with the indicated dose of irisin for 6 days. Tibias were collected and treated with collagenase to obtain mRNA from the osteocyte-enriched bones. Sclerostin mRNA level was analyzed by qPCR (FIG. 7A). Serum was collected to analyze the sclerostin protein level using ELISA kit (R&D Systems Inc., catalog number MSST00) (FIG. 7B). The data shown in FIG. 8 were generated from 8 week-old mice injected with the indicated dose of irisin for 6 days. Epididymal fats were collected, RNAs were extracted from the tissues, and mRNA levels of the indicated genes were analyzed by qPCR. […]

Row | Molecule | effect of integrin inhibitor on irisin-induced signaling (phosphorylation of FAK, Zyxin, CREB)
1 | N=C(N)NCCC[C@@H]1NC(=O)[C@H](CCCCN)NC(=O)[C@@H](Cc2ccc(O)cc2)NC(=O)[C@H](CC(=O)O)NC(=O)CNC1=O [cyclo RGDyK] | block irisin-induced signaling
2 | RGDS peptide: classical integrin competitive inhibitory peptide, commercially available form of the RGD peptide | most irisin signaling in osteocytes was inhibited; also recorded: dramatically suppressed
